Reference: ChEMBL document CHEMBL1201862, “PubChem BioAssay data set” (2004)
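These data come from cells grown in 96-well plates and exposed to compound for 48 hours at five concentrations. The concentration for 50% growth inhibition is given as GI50.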 Active and inactive are the calls of the source. Cut-off read from the data, not from the text of the source: active = GI50 up to about 1.1 µM and inactive = higher.

Columns and labels:
Assay in all cases: inhibition of tumour cell growth, NCI panel, 48 h
HOP-62 = tested on: HOP-62
NCI-H460 = tested on: NCI-H460
MDA-N = tested on: MDA-N
DU-145 = tested on: DU-145
MDA-MB-435 = tested on: MDA-MB-435
HT-29 = tested on: HT-29
UO-31 = tested on: UO-31
IGROV-1 = tested on: IGROV-1
NCI/ADR-RES = tested on: NCI/ADR-RES
SK-MEL-28 = tested on: SK-MEL-28
A549 = tested on: A549
UACC-257 = tested on: UACC-257
A498 = tested on: A498
EKVX = tested on: EKVX
786-0 = tested on: 786-0
HCT-116 = tested on: HCT-116
HOP-92 = tested on: HOP-92
SNB-19 = tested on: SNB-19
NCI-H522 = tested on: NCI-H522

NCC(=O)C(O)C(O)C(O)CO (stereo not given)
GI50 (HOP-62): > 100 µM (inactive)
GI50 (NCI-H460): > 100 µM (inactive)
GI50 (MDA-N): > 100 µM (inactive)
GI50 (DU-145): > 100 µM (inactive)
GI50 (MDA-MB-435): > 100 µM (inactive)
GI50 (HT-29): > 100 µM (inactive)
GI50 (UO-31): > 100 µM (inactive)
GI50 (IGROV-1): > 100 µM (inactive)
GI50 (NCI/ADR-RES): > 100 µM (inactive)
GI50 (SK-MEL-28): > 100 µM (inactive)
GI50 (A549): > 100 µM (inactive)
GI50 (UACC-257): > 100 µM (inactive)
GI50 (A498): > 100 µM (inactive)
GI50 (EKVX): > 100 µM (inactive)
GI50 (786-0): > 100 µM (inactive)
GI50 (HCT-116): > 100 µM (inactive)
GI50 (HOP-92): > 100 µM (inactive)
GI50 (SNB-19): > 100 µM (inactive)
GI50 (NCI-H522): > 100 µM (inactive)

C#CC(=O)OCC#CCOC(=O)C#C
GI50 (HOP-62): 21.6 µM (inactive)
GI50 (NCI-H460): > 100 µM (inactive)
GI50 (MDA-N): 38.8 µM (inactive)
GI50 (DU-145): 26.8 µM (inactive)
GI50 (MDA-MB-435): 28.8 µM (inactive)
GI50 (HT-29): 23 µM (inactive)
GI50 (UO-31): 9.14 µM (inactive)
GI50 (NCI/ADR-RES): 24.9 µM (inactive)
GI50 (A549): 27.9 µM (inactive)
GI50 (UACC-257): > 100 µM (inactive)
GI50 (A498): > 100 µM (inactive)
GI50 (EKVX): 14.2 µM (inactive)
GI50 (786-0): 15 µM (inactive)
GI50 (HCT-116): 15.7 µM (inactive)
GI50 (HOP-92): 16.9 µM (inactive)
GI50 (SNB-19): > 100 µM (inactive)
GI50 (NCI-H522): 3.23 µM (inactive)

O=C(O)CNC(=O)c1ccc(-c2ccccc2)cc1
GI50 (HOP-62): > 100 µM (inactive)
GI50 (NCI-H460): > 100 µM (inactive)
GI50 (MDA-N): > 100 µM (inactive)
GI50 (DU-145): > 100 µM (inactive)
GI50 (MDA-MB-435): > 100 µM (inactive)
GI50 (UO-31): > 100 µM (inactive)
GI50 (IGROV-1): > 100 µM (inactive)
GI50 (NCI/ADR-RES): > 100 µM (inactive)
GI50 (SK-MEL-28): > 100 µM (inactive)
GI50 (A549): > 100 µM (inactive)
GI50 (UACC-257): > 100 µM (inactive)
GI50 (A498): > 100 µM (inactive)
GI50 (EKVX): > 100 µM (inactive)
GI50 (786-0): > 100 µM (inactive)
GI50 (HCT-116): > 100 µM (inactive)
GI50 (HOP-92): 61.1 µM (inactive)
GI50 (SNB-19): > 100 µM (inactive)
GI50 (NCI-H522): > 100 µM (inactive)

C/C(=N\Nc1nc2ccccc2s1)c1cc(C)ncn1
GI50 (HOP-62): 1.34 µM (inactive)
GI50 (NCI-H460): 0.426 µM (active)
GI50 (MDA-N): 3.98 µM (inactive)
GI50 (DU-145): 2.19 µM (inactive)
GI50 (MDA-MB-435): 2.81 µM (inactive)
GI50 (HT-29): 0.0637 µM (active)
GI50 (UO-31): 0.389 µM (active)
GI50 (IGROV-1): 0.824 µM (active)
GI50 (NCI/ADR-RES): 0.371 µM (active)
GI50 (SK-MEL-28): 3.09 µM (inactive)
GI50 (A549): 2.25 µM (inactive)
GI50 (UACC-257): 0.29 µM (active)
GI50 (A498): 9.93 µM (inactive)
GI50 (EKVX): 0.269 µM (active)
GI50 (786-0): 0.507 µM (active)
GI50 (HCT-116): 0.1 µM (active)
GI50 (HOP-92): 1.54 µM (inactive)
GI50 (SNB-19): 6.68 µM (inactive)
GI50 (NCI-H522): 0.07 µM (active)

COC(=O)[C@@H]1CN(C(C)=O)C(=O)N1C(=O)OCc1ccccc1
GI50 (HOP-62): > 100 µM (inactive)
GI50 (NCI-H460): > 100 µM (inactive)
GI50 (MDA-N): > 100 µM (inactive)
GI50 (DU-145): > 100 µM (inactive)
GI50 (MDA-MB-435): > 100 µM (inactive)
GI50 (HT-29): > 100 µM (inactive)
GI50 (UO-31): > 100 µM (inactive)
GI50 (IGROV-1): > 100 µM (inactive)
GI50 (NCI/ADR-RES): > 100 µM (inactive)
GI50 (SK-MEL-28): > 100 µM (inactive)
GI50 (A549): > 100 µM (inactive)
GI50 (UACC-257): > 100 µM (inactive)
GI50 (A498): > 100 µM (inactive)
GI50 (EKVX): > 100 µM (inactive)
GI50 (786-0): > 100 µM (inactive)
GI50 (HCT-116): > 100 µM (inactive)
GI50 (HOP-92): > 100 µM (inactive)
GI50 (SNB-19): > 100 µM (inactive)
GI50 (NCI-H522): > 100 µM (inactive)

NC1(C(=O)OCc2ccccc2)CCCC1
GI50 (HOP-62): 18.8 µM (inactive)
GI50 (NCI-H460): 43.3 µM (inactive)
GI50 (MDA-N): 20.1 µM (inactive)
GI50 (DU-145): 16.6 µM (inactive)
GI50 (MDA-MB-435): 15.1 µM (inactive)
GI50 (HT-29): 37.8 µM (inactive)
GI50 (UO-31): 15.6 µM (inactive)
GI50 (IGROV-1): 18.5 µM (inactive)
GI50 (NCI/ADR-RES): 28.6 µM (inactive)
GI50 (SK-MEL-28): 22.6 µM (inactive)
GI50 (A549): 28.8 µM (inactive)
GI50 (UACC-257): 19.2 µM (inactive)
GI50 (A498): 41.3 µM (inactive)
GI50 (EKVX): 24.5 µM (inactive)
GI50 (786-0): 18 µM (inactive)
GI50 (HCT-116): 18 µM (inactive)
GI50 (HOP-92): 14.4 µM (inactive)
GI50 (SNB-19): 21.2 µM (inactive)
GI50 (NCI-H522): 7.06 µM (inactive)

Nc1nc(Cl)c(Cl)c(NCC2(O)CCC2)n1
GI50 (HOP-62): 92.3 µM (inactive)
GI50 (NCI-H460): > 100 µM (inactive)
GI50 (MDA-N): > 100 µM (inactive)
GI50 (DU-145): > 100 µM (inactive)
GI50 (MDA-MB-435): 88.3 µM (inactive)
GI50 (HT-29): > 100 µM (inactive)
GI50 (UO-31): 31.2 µM (inactive)
GI50 (IGROV-1): 45.6 µM (inactive)
GI50 (NCI/ADR-RES): 45 µM (inactive)
GI50 (SK-MEL-28): > 100 µM (inactive)
GI50 (A549): 76.4 µM (inactive)
GI50 (UACC-257): > 100 µM (inactive)
GI50 (A498): 11.4 µM (inactive)
GI50 (EKVX): 22 µM (inactive)
GI50 (786-0): > 100 µM (inactive)
GI50 (HCT-116): 57.3 µM (inactive)
GI50 (HOP-92): 29.1 µM (inactive)
GI50 (SNB-19): > 100 µM (inactive)
GI50 (NCI-H522): 18.3 µM (inactive)
